Experimental findings from ChEMBL document CHEMBL4043113, “A novel antihypertension agent, sargachromenol D from marine brown algae, Sargassum siliquastrum, exerts dual action as an L-type Ca2+ channel blocker and endothelin A/B2 receptor antagonist” (Bioorg Med Chem, 2017) are described below.

The species entered for assay [1] is Oryctolagus cuniculus. The assay is described as follows: (§1) Antagonist activity at New Zealand rabbit endothelin A/B2 receptor assessed as dilation of endothelin-1 induced basilary artery contraction measured after 20 mins.
The nature of assay [2]: as §1. Also on record: species or system Oryctolagus cuniculus.
Assay [3] in a line: Antagonist activity at New Zealand rabbit L-type calcium channel assessed as dilation of K+-depolarization induced basilary artery contraction measured after 20 mins. Also on record: species or system Oryctolagus cuniculus.

Molecules are shown by their SMILES. Calls of active or inactive are those of the source. The rule behind the calls is not given here.

With `CC(=O)CC/C=C(\C)CCC/C(C)=C/C(=O)CC(C)C`, in assay [1], the result was inactive.
Turning to `COc1ccccc1Oc1c(NS(=O)(=O)c2ccc(C(C)(C)C)cc2)nc(-c2ncccn2)nc1OCCO` [BOSENTAN], the EC50 in assay [2] was 530 nM.
With `COCCOC(=O)C1=C(C)NC(C)=C(C(=O)OC(C)C)C1c1cccc([N+](=O)[O-])c1` (stereo unspecified) [NIMODIPINE], the EC50 in assay [3] is 520 nM.
`CC(=O)CC/C=C(\C)CCC/C(C)=C\C(=O)CC(C)C`: the outcome in assay [1] was inactive.
Regarding `C/C(=C\CCC(C)O)CCC/C(C)=C/C(=O)CC(C)C` (stereo unspecified), the result in assay [1] was inactive. Further, the concentration giving a half-maximal response (EC50) in assay [3] stood at 3520 nM.
